Data as given in patent publication US9339487B2, “Dry powder pharmaceutical composition for inhalation” (priority 2008, dated 2016).
Where two headings read alike, the source gives them in different places.

Legend:
[1] = tested on: influenza A or B virus infection; type: in vivo, human; conditions: adult patients
[2] = tested on: influenza A or B virus infection; type: in vivo, human
[3] = tested on: influenza A or B virus infection; test: Test of comparison with oseltamivir phosphate for child patients; type: in vivo, human
[4] = type: in vivo, human
Method: The medicinal component was administered in a single inhaled dose of 5 mg, 10 mg, 20 mg, or 40 mg to healthy adult male subjects, and the pharmacokinetics of the medicinal component and the compound (III), which is an active metabolite of the medicinal component, were evaluated.
(§1) The administration was performed using the composition prepared according to Example 41.

clinical = type: in vivo, human; conditions: for fe0-144 h [%]: cumulative urinary recovery until 144 hours; for fe0-144 h [%] / Cmax / half-life / AUC(0-inf): geometric mean; for Tmax / Cmax / half-life / AUC(0-inf): male, human, in vivo; for Tmax: inhaled or intranasal, single inhaled dose of medicinal component, plasma, median; for AUC(0-inf): read-out: AUC0-inf [ng/mL]
Method: The medicinal component was administered in a single inhaled dose of 80 mg or 120 mg to healthy adult male subjects, and the pharmacokinetics of the medicinal component were evaluated. In addition, the pharmacokinetics of the Compound (III), an active metabolite of the medicinal component, were also determined.
as §1

SMILES | Median value (hours) of the duration of influenza illness ([1]; 75 mg twice daily for 5 days) | Median value (hours) of the duration of influenza illness ([2]; 75 mg twice daily for 5 days) | Median value (hours) of the duration of influenza illness ([3]; child patients (9 or less years old), 2 mg/kg twice daily for 5 days) | upper limit of the 95% confidence interval for the difference between the median values ([1]; every dose group (20 mg, 40 mg), non-inferiority margin 18 hours) | Difference (95% confidence interval, hours) in median value from the oseltamivir phosphate group ([2]; human, in vivo) | duration of influenza illness compared with the oseltamivir phosphate group ([2]; human, in vivo) | duration of the illness compared with the oseltamivir phosphate group ([3]; child patients, each of the 20 mg group and the 40 mg group) | time after administration at which plasma concentration was less than the quantification lower limit ([4]; each dose group (5, 10, 20, 40 mg), single inhaled dose) | dose proportionality of pharmacokinetic parameters (Cmax, AUC0-tz, AUC0-inf, Ae0-144h of medicinal component; Cmax, Ae0-144h of compound (III)) ([4]; single inhaled dose 5, 10, 20 or 40 mg) | time after administration at which almost not detected in urine ([4]; urinary excretion, single inhaled dose 5 to 40 mg) | fe0-144 h [%] (clinical; 80 mg group) | fe0-144 h [%] (clinical; 120 mg group) | Tmax (clinical; 80 mg group) | Tmax (clinical; 120 mg group) | Cmax (clinical; 80 mg group) | half-life (clinical; 80 mg group) | AUC(0-inf) (clinical; 80 mg group) | Cmax (clinical; 120 mg group) | half-life (clinical; 120 mg group) | AUC(0-inf) (clinical; 120 mg group)
CCOC(=O)C1=C[C@@H](OC(CC)CC)[C@H](NC(C)=O)[C@@H](N)C1 [Oseltamivir phosphate, oseltamivir phosphate, reference compound] | 73.6 h | 87.4 h | 87.3 h | – | – | – | – | – | – | – | – | – | – | – | – | – | – | – | – | –
CCCCCCCC(=O)OC[C@@H](O)[C@@H](OC)[C@@H]1OC(C(=O)O)=C[C@H](NC(=N)N)[C@H]1NC(C)=O [Medicinal component, (2R,3R,4S)-3-acetamido-4-guanidino-2-[(1R,2R)-2-hydroxy-1-methoxy-3-(octanoyloxy)propyl]-3,4-dihydro-2H-pyran-6-carboxylic acid] | – | – | – | less than 18 hours | −1.4(−27.6 to 7.3) hours | almost equal | shorter | ≥ 24 h | Dose proportionality was observed | ≥ 24 h | 3.5% | 2.7% | 0.5 h | 0.5 h | 335 ng/mL | 5.66 h | 1270 ng·h/mL | 412 ng/mL | 2.87 h | 1560 ng·h/mL
